This assay concerns C57BL/6J mice fed MFMC diet. In words: Diet-induced hyperlipidemia: serum and liver TC/TG and FPLC lipoprotein profile in mice on MFMC diet. The conditions noted are these: for TC levels in liver, mean / TC levels in the serum, mean / TG levels in liver, mean / TG levels in the serum, mean / TC levels in liver, individual mice / TC levels in the serum, individual mice / TG levels in liver, individual mice / TG levels in the serum, individual mice: 60 mg/kg/day (each agent) gavage once daily 6 weeks; for TC levels in liver, individual mice / TC levels in the serum, individual mice / TG levels in liver, individual mice / TG levels in the serum, individual mice: 60 mg/kg/day; for total cholesterol (TC) and triglyceride (TG) levels in both serum and liver / cholesterol contents in VLDL, LDL and HDL (FPLC serum lipoprotein profile): 6 weeks; for total cholesterol (TC) and triglyceride (TG) levels in both serum and liver: in words; for cholesterol contents in VLDL, LDL and HDL (FPLC serum lipoprotein profile): pooled serum. In kind it is in vivo. An excerpt:
Male C57BL/6 mice (8-week-old) were obtained from Shanghai Laboratory Animal Company (SLAC) (Shanghai, China). Male Ldlr^−/− mice (8-week-old) were obtained from Nanjing Biomedical Research Institute of Nanjing University (Nanjing, China). Mice had ad libitum access to water and standard chow diet (SLAC) unless mentioned otherwise. Special diets included medium-fat-medium-cholesterol diet (chow diet with10% fat, 0.2% cholesterol and 0.5% sodium cholate, custom made in SLAC), and western diet (20% fat, 1.25% cholesterol, 0.5% sodium cholate, D12109C, Research Diets). Mice were maintained in a pathogen-free environment and kept on a 12-h light/dark schedule. Mice were gavaged as described in figure legends with saline containing 0.5% methyl cellulose and 0.5% Tween-80. All mice were used in accordance with the guidelines approved by the Institutional Animal Care and Use Committee of Wuhan University.
Mice were anesthetized and blood collection was performed. Serum was prepared from blood by centrifuging at 1500 × g for 10 min. Livers were harvested and homogenized in a 2:1 mixture of chloroform and methanol using Precellys 24 (Bertin). The organic phase was dried under N2 and liver lipids were reconstituted in ethanol. Total cholesterol and triglyceride levels in the serum and liver were determined using Cholesterol Assay Kit and Triglyceride Assay Kit (Shanghai Kehua Bio-engineering, China).
Serum lipoproteins were separated by FPLC (AKTA, GE Healthcare) using Superdex 75 10/300 GL (GE Healthcare) column. One hundred microliters pooled serum from five mice per group was diluted with 200 μl PBS, and loaded to the column. Fractions were eluted with PBS at a constant rate of 0.2 ml min^–1, and collected with 300 μl per tube. 100 μl fractions were used to quantify the concentration of total cholesterol level with the Amplex Red Cholesterol Assay Kit (Invitrogen). The cholesterol distribution curves of lipoproteins were done with GraphPad Prism 6 software.

Where “and” joins values, the source holds several entries; their conditions need not be identical. Equal values may be shown once.

Turning to `C=CCC(O)(CC=C)CCCC(C)C1CCC2C3C(O)C=C4C(C)(C)C(O)CCC4(C)C3CCC12C` (centres unmarked) [Cmpd 81], the “TC levels in liver, mean” value is on record as 3.712; the “TC levels in the serum, mean” value is recorded as 104.81; the “TG levels in liver, mean” value was found to be 12.3264; the “TG levels in the serum, mean” value is 55.4414. In addition, the “TC levels in liver, individual mice” value was 3.732 and 3.964 and 3.655 and 3.864 and 3.346; the “TC levels in the serum, individual mice” value was 111 and 100.379 and 112.009 and 105.661 and 95; the “TG levels in liver, individual mice” value is 12.9147 and 9.311 and 13.437 and 16.1354 and 9.834; the “TG levels in the serum, individual mice” value is 60.1534 and 51.6317 and 49.6138 and 57.1457 and 58.6623. In addition, the “total cholesterol (TC) and triglyceride (TG) levels in both serum and liver” value is listed as “significantly lowered”; the “cholesterol contents in VLDL, LDL and HDL (FPLC serum lipoprotein profile)” value is “reduced to similar levels”.

Consider `CC[C@H](C)C(=O)O[C@H]1C[C@@H](C)C=C2C=C[C@H](C)[C@H](CC[C@@H]3C[C@@H](O)CC(=O)O3)[C@H]21` [Lovastatin, lovastatin], for which the “TC levels in liver, mean” value was 3.624; the “TC levels in the serum, mean” value is given as 103.826; the “TG levels in liver, mean” value is given as 12.4726; the “TG levels in the serum, mean” value was 54.3007. The “TC levels in liver, individual mice” value is 3.3 and 3.747 and 3.618 and 3.824 and 3.629; the “TC levels in the serum, individual mice” value is 108.623 and 105.887 and 100.644 and 93.2834 and 110.692; the “TG levels in liver, individual mice” value was 14.0603 and 12.8492 and 8.103 and 12.4763 and 14.8742; the “TG levels in the serum, individual mice” value was 51.0844 and 48 and 54.6444 and 61.1304 and 56.6444. Further, the “total cholesterol (TC) and triglyceride (TG) levels in both serum and liver” value is recorded as “significantly lowered”; the “cholesterol contents in VLDL, LDL and HDL (FPLC serum lipoprotein profile)” value is “reduced to similar levels”.

The record behind these values is publication PMC6277434, “Discovery of a potent HMG-CoA reductase degrader that eliminates statin-induced reductase accumulation and lowers cholesterol” (Nature Communications, 2018).
